Reference: patent US20260224460A1, “A PERSONAL CARE COMPOSITION” (Conopco, Inc., d/b/a UNILEVER, priority 2023, published 2026)

test system: Collagen1 gene expression (COL1A1) in WS1 cells; test: Collagen1 (COL1A1) gene expression by real time PCR in WS1 human dermal fibroblasts; format: cell-based; settings: Table 2 (lysine series), 24 hours treatment, actives in wt %, fold change vs untreated control (1.0), normalized to GAPDH

Structure (SMILES) | Gene expression (Collagen1)
O=C(O)CCCCCC(=O)O [Example G1, Pimelic acid] | 1.1
O=C(O)CCCCCC(=O)O [Example G2, Pimelic acid] | 2.4
O=C(O)CCCCCC(=O)O [Example G3, Pimelic acid] | 3.0
COC(=O)CCCCCC(=O)OC [Example H1, Dimethyl pimelate] | 1.2
COC(=O)CCCCCC(=O)OC [Example H2, Dimethyl pimelate] | 2.4
COC(=O)CCCCCC(=O)OC [Example H3, Dimethyl pimelate] | 3.7
O=C(O)CCCCCCC(=O)O [Example J1, Suberic acid] | 1.7
O=C(O)CCCCCCC(=O)O [Example J2, Suberic acid] | 2.8
O=C(O)CCCCCCC(=O)O [Example J3, Suberic acid] | 1.4
O=C(O)CCCCCCCC(=O)O [Example K1, Azeleic acid] | 1.3
O=C(O)CCCCCCCC(=O)O [Example K2, Azeleic acid] | 1.6
O=C(O)CCCCCCCC(=O)O [Example K3, Azeleic acid] | 2.0
NCCCC[C@H](N)C(=O)O [F, Lysine] | 0.8

same assay, conditions: Table 3 (additional weight ratios 2:1, 4:1, 25:1), 24 hours treatment, actives in wt %, fold change vs untreated control (1.0), normalized to GAPDH

Structure (SMILES) | Gene expression (Collagen1)
N=C(N)NCCCC(N)C(=O)O (centres unmarked) [Example L1, Arginine] | 1.5
N=C(N)NCCCC(N)C(=O)O (centres unmarked) [Example L2, Arginine] | 3.3
N=C(N)NCCCC(N)C(=O)O (centres unmarked) [Example L3, Arginine] | 4.4
O=C(O)CCCCCC(=O)O [Example M1, Pimelic acid] | 3.0
O=C(O)CCCCCC(=O)O [Example M2, Pimelic acid] | 3.9
O=C(O)CCCCCC(=O)O [Example M3, Pimelic acid] | 2.7
COC(=O)CCCCCC(=O)OC [Example N1, Dimethyl pimelate] | 2.2
COC(=O)CCCCCC(=O)OC [Example N2, Dimethyl pimelate] | 3.5
COC(=O)CCCCCC(=O)OC [Example N3, Dimethyl pimelate] | 2.5
O=C(O)CCCCCCC(=O)O [Example O1, Suberic acid] | 2.7
O=C(O)CCCCCCC(=O)O [Example O2, Suberic acid] | 3.7
O=C(O)CCCCCCC(=O)O [Example O3, Suberic acid] | 2.5
O=C(O)CCCCCCCC(=O)O [Example P1, Azelaic acid] | 1.7
O=C(O)CCCCCCCC(=O)O [Example P2, Azelaic acid] | 2.4
O=C(O)CCCCCCCC(=O)O [Example P3, Azelaic acid] | 1.6

test system: Collagen1 gene expression (COL1A1) in WS1 cells; test: as above; format: cell-based; settings: Table 1, 24 hours treatment, actives in wt %, fold change vs untreated control (1.0), normalized to GAPDH, delta delta Ct
Protocol: Experiments were carried out to study gene expression of Collagen1 with actives as shown in Table-1 individually and in combination and the data is 12ummarized therein. The methodology used to measure the gene expression is given below:
WS1 cells (human dermal fibroblasts) were grown and maintained in high glucose DMEM (HIMEDIA cat No AL219A) supplemented with 0.03 mM Calcium chloride, 1 mM sodium pyruvate and 10% FBS (Fetal Bovine Serum) at 37° C. with 5% CO2. 80% confluent cells were trypsinized and plated in 24 well plate at a density of 50,000 cells/well. The cells were incubated at 37° C. with 5% CO2 for 24 hours. Post incubation, the cells were treated with arginine (0.005%) and varying concentration of pimelic acid, dimethyl pimelate, suberic acid. Azelaic acid (0.0001, 0.001, 0.005%). 24 hours after treatment the cells were harvested for RNA extraction. RNA was extracted using Qiagen RNA extraction kit (Cat No: 74004) as per the instructions given in the kit. After extraction of RNA, cDNA synthesis was done using iscript cDNA synthesis kit (Biorad Cat no: 1708890). […] of RNA was used for cDNA synthesis. cDNA template synthesized was used for gene expression studies.
Quantification of collagen gene expression was carried out using real time PCR. […] of cDNA was used for setting up the reaction. The PCR reaction mix had […] each of forward and reverse primer, […] of PCR master mix (Sigma Cat No: KCQS00). Amplification was carried out at 95° C. for 30 seconds as the first step, followed by 40 cycles of qRT-PCR at 95° C. for 5 seconds, and at 60° C. for 20 seconds. mRNA expression was measured in triplicate and was normalized to GAPDH (glyceraldehyde 3-phosphate dehydrogenase) expression levels. The relative quantification was done using delta delta Ct method. The primers used in the study are COL1A1 forward primer 5′-[…]-3′, COL1A1 reverse primer 5′-[…]-3′, GAPDH forward primer 5′-[…]-3′, reverse primer 5′-[…]-3′. The relative quantification of gene expression was done after normalization using house keeping gene (GAPDH) and comparing with untreated control.
The fold change of gene ‘expression obtaine’ from cells treated with’ combination of test actives were compared with the gene expression obtained from cells treated with individual ingredients.

Structure (SMILES) | Gene expression (Collagen1)
N=C(N)NCCCC(N)C(=O)O (centres unmarked) [Example A, Arginine] | 1.9
O=C(O)CCCCCC(=O)O [Example B1, Pimelic acid] | 1.1
O=C(O)CCCCCC(=O)O [Example B2, Pimelic acid] | 2.8
O=C(O)CCCCCC(=O)O [Example B3, Pimelic acid] | 3.2
COC(=O)CCCCCC(=O)OC [Example C1, Dimethyl pimelate] | 1.2
COC(=O)CCCCCC(=O)OC [Example C2, Dimethyl pimelate] | 2.5
COC(=O)CCCCCC(=O)OC [Example C3, Dimethyl pimelate] | 3.8
O=C(O)CCCCCCC(=O)O [Example D1, Suberic acid] | 1.6
O=C(O)CCCCCCC(=O)O [Example D2, Suberic acid] | 2.9
O=C(O)CCCCCCC(=O)O [Example D3, Suberic acid] | 1.3
O=C(O)CCCCCCCC(=O)O [Example E1, Azeleic acid] | 1.4
O=C(O)CCCCCCCC(=O)O [Example E2, Azeleic acid] | 1.6
O=C(O)CCCCCCCC(=O)O [Example E3, Azeleic acid] | 1.9
